Measured values published in US12655458B2, “Methods for cyclization of (poly)peptides comprising nγ-hydroxy- or Nγ-amino-L-asparagine” (priority 2021, dated 2026).
Entries after “also recorded” stand apart in the source; their conditions may differ. Where two headings read alike, the source gives them in different places. Starred links: 1 amine or outer side, 2 acyl side, 3 side chain; linkers in the order of their positions; H or OH if unused. Positions of bridges follow the written chain, without caps; N, C: chain ends. Non-standard residues stand in square brackets, D forms with d. Residues, ends and D or L forms follow the SMILES beside them. No end group written: not given here. *: point of attachment. N(NH2) = N-gamma-amino-L-asparagine, O=C(C[C@H](N[*:1])C(=O)[*:2])NN[*:3]; N(OH) = N-hydroxy-L-asparagine, O=C(C[C@H](N[*:1])C(=O)[*:2])NO; NHOH = ON*

Assays:
MMP2 = biological target: T1, MMP2 (Homo sapiens, UniProt P08253); assay: MMPs inhibition assay (FRET substrate), MMP2; assay type: biochemical
T1 construct: purchased Sigma-Aldrich
T1 sequence (P08253 110-660): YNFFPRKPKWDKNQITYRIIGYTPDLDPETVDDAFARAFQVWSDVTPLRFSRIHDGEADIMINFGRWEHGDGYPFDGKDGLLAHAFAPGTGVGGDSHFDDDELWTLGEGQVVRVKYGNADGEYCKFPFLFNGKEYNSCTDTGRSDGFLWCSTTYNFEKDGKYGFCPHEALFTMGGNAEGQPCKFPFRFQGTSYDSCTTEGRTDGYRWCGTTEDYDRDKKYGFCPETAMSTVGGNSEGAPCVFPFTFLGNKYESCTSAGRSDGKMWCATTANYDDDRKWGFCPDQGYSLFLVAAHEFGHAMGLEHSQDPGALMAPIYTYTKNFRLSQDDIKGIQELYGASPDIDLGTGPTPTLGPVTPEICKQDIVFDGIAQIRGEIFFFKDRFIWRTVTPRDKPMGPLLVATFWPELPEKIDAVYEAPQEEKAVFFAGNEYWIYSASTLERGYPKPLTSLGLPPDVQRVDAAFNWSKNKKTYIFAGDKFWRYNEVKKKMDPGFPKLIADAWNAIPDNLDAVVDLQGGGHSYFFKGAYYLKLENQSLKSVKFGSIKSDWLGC
Protocol: The inhibitory activity of the peptides was determined by measuring the MMPs' protease activity towards a FRET substrate. 0.8 nM MMP2 or MMP9 (Sigma-Aldrich), 10 μM substrate (FAM-Lys-Pro-Leu-Gly-Leu-Lys(Dabcyl)-Ala-Arg-NH2, λex 490 nm; λem 520 nm) and various concentrations of the peptides (0.0001 μM-10 μM or 0.001 μM-100 μM) were used. The reactions were performed in 50 mM Tris-HCl buffer (pH 7.5) containing 150 mM NaCl, 10 mM CaCl2, 0.05% Brij35, at 37° C. MMP2 was pre-incubated with the peptide inhibitors for 10 min before adding the substrate. All the numbers were input into GraphPad Prism (GraphPad Software, San Diego) for IC50 calculation.

[1] = Stability in human serum by HPLC analysis; assay type: in vitro ADME; conditions: 37° C.
Protocol: Peptides were mixed with human serum to a final concentration of 100 μM and incubated at 37° C. Aliquots of the sample were taken out at different time points and 10% TFA was added to quench all protease activities, followed by addition of 10% of DMSO. The solution mixture was centrifuged (11,000 g, 5 min, 4° C.) and the supernatant was analysed by RP-HPLC (15% buffer B-65% buffer B in 25 min) and ESI-MS. The quantity of the remaining peptides was determined by comparing their HPLC peak area with the initial peak area.

butelase-1 [2] = assay: Kinetics of peptide cyclization by butelase-1; assay type: biochemical, Clitoria ternatea; conditions: for Kcat / Km: cyclization by butelase-1, 37° C., PBS pH 6.5
butelase-1, sequence (as listed by the source): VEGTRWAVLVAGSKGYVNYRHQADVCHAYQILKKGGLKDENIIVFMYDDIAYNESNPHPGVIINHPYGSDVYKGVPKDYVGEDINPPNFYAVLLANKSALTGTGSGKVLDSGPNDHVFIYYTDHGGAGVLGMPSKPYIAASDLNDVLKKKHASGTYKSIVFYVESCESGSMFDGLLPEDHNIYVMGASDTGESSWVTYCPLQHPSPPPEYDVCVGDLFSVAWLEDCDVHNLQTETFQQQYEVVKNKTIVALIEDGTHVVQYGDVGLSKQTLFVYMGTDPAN
Protocol: (§1) Enzyme-meditated cyclization and ligation reactions were performed in 20 mM PBS buffer (pH 6.5) at 37° C. with 0.5 mM TCEP. The reaction was quenched by adding 20% TFA. The enzyme concentration was determined by the absorbance at 280 nm using Nanodrop. The reactions were monitored by reverse-phase analytical HPLC, and the products were characterized by MALDI-MS or ESI-MS.
(§2) Model peptides (1-6, see Table 51) were used in the kinetic studies. The cyclization reaction was performed in 20 mM PBS buffer (pH 6.5) containing 0.5 mM TCEP, at 37° C. The reaction was monitored by analytical RP-HPLC (5% buffer B-45% buffer B in 20 min). Kinetic constants for these peptides were obtained from the initial reaction rates. To ensure that the measurement of reaction rate was in the range of the initial velocity, the reaction was quenched using 20% TFA, when less than 25% of the substrate has been converted. Each recorded value is an average of measurements in triplicate. All the numbers were input into GraphPad Prism (GraphPad Software, San Diego) to obtain the Michaelis-Menten curve and calculate the kinetic parameters (kcat and Km).
Plant flowers of Clitoria ternatea grown in the Nanyang Technological University Herb Garden were collected. Butelase-1 was extracted using a chromatography method described previously.^5 Purified butelase-1 was obtained and stored at 4° C. or −80° C. in 50 mM sodium phosphate buffer (pH 6.0) containing 1 mM EDTA, 5 mM β-mercaptoethanol, 0.01% Tween 20 and 20% sucrose.

VyPAL2 = assay: Kinetics of peptide cyclization by VyPAL2; assay type: biochemical; conditions: for Kcat / Km: cyclization by VyPAL2, 37° C., PBS pH 6.5
VyPAL2, sequence (as listed by the source): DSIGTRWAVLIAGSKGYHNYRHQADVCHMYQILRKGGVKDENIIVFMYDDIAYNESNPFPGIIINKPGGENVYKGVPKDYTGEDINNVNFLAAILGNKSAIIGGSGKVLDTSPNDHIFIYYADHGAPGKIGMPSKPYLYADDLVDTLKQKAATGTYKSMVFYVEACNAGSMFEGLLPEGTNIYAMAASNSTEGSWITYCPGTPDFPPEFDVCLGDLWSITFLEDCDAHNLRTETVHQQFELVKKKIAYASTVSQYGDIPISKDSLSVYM
Protocol: as §1, §2
VyPAL2 was expressed using sf9 insect cells as described previously (Hemu et al. PNAS, 2019, 116, 11737-11746). 100 mL of the viral vector containing VyPAL2 gene was used to infect sf9 cells at cell density of 2.5×10^6 cells/mL. MOI for infection was set between 1-10 for protein expression. The culture was incubated at 27° C. shaker for 3 days (72 hours) at 135 rpm. Protein purification was performed in three steps: Immobilized Metal Affinity Chromatography (IMAC), Ion-Exchange Chromatography (IEX), and Size-Exclusion chromatography (SEC). Pro-VyPAL2 was activated at pH 5 in 50 mM sodium citrate buffer (0.1 M NaCl, 1 mM DTT, 0.5 mM LS) for 2-3 h at 37° C. After activation, the activated enzyme was purified by SEC at pH 6.5 (20 mM PBS, 0.1 M NaCl, 1 mM DTT).

butelase-1 [3] = assay: Inhibitory activity assay of AN(Me)12-HV 7 on butelase-1 cyclization of pB1 peptide; assay type: biochemical, Clitoria ternatea; conditions: 200 μM pB1, 0.001 eq butelase-1, pH 6.5, 37° C., 10 min; increasing concentration of peptide 7
Protocol: FIG. 7. Inhibitory activity assay of AN(Me)12-HV 7. (a) RP-HPLC trace for cyclization of pB1 peptide ([…]; SEQ ID NO:13). The cyclization reaction was performed at 37° C. in the present of 200 μM of peptide substrates and 0.001 eq of butelase-1 in 20 mM PBS (pH 6.5) for 10 min. The reactions were monitored by RP-HPLC. The cyclic peptide is labelled as c[pB1] and starred HPLC peak is the potentially inhibitory peptide AN(Me)12-HV 7. […] (b) MALDI profiles of pB1 and AN(Me)12-HV 7 before and after treatment with butelase-1.
as §1

butelase 1 = assay: Butelase 1-mediated inter-peptide ligation with acyl acceptor GIRGI; assay type: biochemical, Clitoria ternatea; conditions: 400 uM peptide, 3.2 mM GIRGI, 0.01 eq butelase 1, pH 6.5, room temperature
Protocol: The reaction was conducted using 400 uM of Ac-KYSN(NH2)GL and 3.2 mM of GIRGI (8 eq) in the presence of 0.01 eq butelase 1 in 20 mM PBS buffer (pH 6.5) at room temperature. The ligation product was obtained in >80% yield in 1 h (FIG. 28, lower panel). The fact that Asn(NH2) can be recognized by butelase 1 as a P1 residue for inter-peptide ligation indicates it can also be used to mediate peptide cyclization (FIG. 27).

[4] = enzyme bond, 37.0 °C
[5] = the molecule shown is the open-chain precursor, 102-membered ring, butelase-1 (0.01 eq), 20 mM PBS pH 6.5, 0.4 mM

Compound: CC[C@H](C)[C@H](N)C(=O)N[C@@H](CO)C(=O)N[C@@H](Cc1ccc(O)cc1)C(=O)NCC(=O)N[C@@H](CC(N)=O)C(=O)N[C@@H](CC(=O)NO)C(=O)N[C@@H](C)C(=O)N[C@@H](CC(C)C)C(=O)N[C@@H](CCSC)C(=O)N1CCC[C@H]1C(N)=O [Peptide 9, ISYGNN(OH)ALMP] (H-ISYGND(NHOH)ALMP-NH2)
- improvement of MMP2 inhibitory activity over APP-IP 8 (MMP2; replacement of Asp by Asn(OH)): 2.6 fold

Compound: CC[C@H](C)[C@@H]1NC(=O)[C@H](CO)NC(=O)CNC(=O)[C@@H]2CCCN2C(=O)[C@H](CCSC)NC(=O)[C@H](CC(C)C)NC(=O)[C@H](C)NC(=O)[C@H](CC(=O)NO)NC(=O)[C@H](CCC(N)=O)NC(=O)CNC(=O)[C@H](Cc2ccc(O)cc2)NC(=O)[C@H](CO)NC1=O [Peptide 11, cyclo[SISYGQN(OH)ALMPG]] (cyclo(ALMPGSISYGQD(NHOH)))
- IC50 (MMP2; APP-IP-derived peptides, 0.8 nM MMP2, 10 μM substrate, pH 7.5, 37° C., read-out: IC50 towards MMP2): > 100000 nM
- Ki (MMP2; APP-IP-derived peptides, Ki=IC50/(1+[S]o/Km), read-out: Ki towards MMP2): > 100000 nM

Compound: CC[C@H](C)[C@@H]1NC(=O)[C@@H]2CSSC[C@H](NC(=O)[C@H](CC(=O)NO)NC(=O)[C@@H]3CSSC[C@H](NC1=O)C(=O)N[C@@H]([C@@H](C)O)C(=O)N[C@@H]([C@@H](C)CC)C(=O)N[C@@H](CO)C(=O)N[C@@H](Cc1ccc(O)cc1)C(=O)N3)C(=O)N[C@@H](CC(C)C)C(=O)N[C@H]1CSSC[C@H](NC(=O)[C@H](C(C)C)NC(=O)CNC(=O)[C@H](CCCNC(=N)N)NC(=O)[C@H](CCCNC(=N)N)NC1=O)C(=O)N[C@@H](CCCNC(=N)N)C(=O)N2 [Peptide 17] (cyclo(CD(NHOH)CLCRRGVCRCICTISY); disulfide 1-14, 3-12, 5-10 (inferred); ring closure inferred)
- stability in human serum ([1]; after 16 h): remained intact
- Ki (MMP2): 2.8 nM
- better MMP2 binding affinity than Asn-RTD-1 19 (MMP2): 13 fold
- better MMP2 binding affinity than Asp-RTD-1 18 (MMP2): 2.3 fold
- improvement of MMP2 Ki over linear Asn(OH)-APP-IP peptide 9 (MMP2): 8.2 fold
- more potent towards MMP2 than MMP9 (selectivity) (MMP2; MMP2 over MMP9): about 1000 fold

Compound: AIYRRGRLYRRDHV [Peptide 3]
- Kcat (butelase-1 [2]): 0.454 ± 0.02 s⁻¹
- Km (butelase-1 [2]): 630 ± 19.5 µM

Compound: AIYRRGRLYRRDSL [Peptide 6]
- Kcat (VyPAL2): 0.581 ± 0.09 s⁻¹
- Km (VyPAL2): 2070 ± 407 µM

Compound: AIYRRGRLYRRN(Me) HV [Peptide 7]
- inhibition of butelase-1 cyclization of pB1 peptide (butelase-1 [3]): nor did it inhibit the cyclization; also recorded: didn't affect the cyclization rate of pB1
- recognition by butelase-1 as substrate for cyclization (butelase-1 [2]): not recognized

Compound: AIYRRGRLYRRN(OH)HV (AIYRRGRLYRR[N(OH)]HV-NH2) [Peptide 2]
- catalytic efficiency of butelase-1, fold higher than DHV peptide 3 (butelase-1 [2]): 48 fold
- catalytic efficiency of butelase-1, fold lower than NHV peptide 1 (butelase-1 [2]): ~6 fold
- Kcat (butelase-1 [2]): 3.46 ± 0.27 s⁻¹
- Km (butelase-1 [2]): 98.8 ± 17.8 µM

Compound: AIYRRGRLYRRN(OH)SL (AIYRRGRLYRR[N(OH)]SL-NH2) [Peptide 5]
- catalytic efficiency of VyPAL2, fold higher than DSL peptide 6 (VyPAL2): 28 fold
- catalytic efficiency of VyPAL2, fold lower than NSL peptide 4 (VyPAL2): ~14 fold
- Kcat (VyPAL2): 0.942 ± 0.082 s⁻¹
- Km (VyPAL2): 120 ± 19.2 µM

Compound: AIYRRGRLYRRNHV [Peptide 1]
- Kcat (butelase-1 [2]): 14.86 ± 0.34 s⁻¹
- Km (butelase-1 [2]): 67.5 ± 2.8 µM

Compound: AIYRRGRLYRRNSL [Peptide 4]
- Kcat (VyPAL2): 4.56 ± 0.24 s⁻¹
- Km (VyPAL2): 42.5 ± 8.83 µM

Compound: Ac-KYSN(NH2)GL (Ac-KYS[N(NH2)]GL-NH2; SMILES CC(=O)N[C@@H](CCCCN)C(=O)N[C@@H](Cc1ccc(O)cc1)C(=O)N[C@@H](CO)C(=O)N[C@@H](CC(=O)NN)C(=O)NCC(=O)N[C@@H](CC(C)C)C(N)=O)
- acyl donor substrate in butelase 1-mediated ligation (butelase 1): good acyl donor substrate

Compound: H-Gly-Arg-Cys-Thr-Lys-Ser-Ile-Pro-Pro-Ile-Cys-Phe-Pro-Asp-Ile-Val-NH2?
- ring closure, conversion ([4]; the molecule shown is the open-chain precursor, 42-membered ring, butelase-1 (0.01 eq), 20 mM PBS pH 6.5, 0.4 mM): 0%

Compound: H-Gly-Gly-Val-Cys-Pro-Lys-Ile-Leu-Lys-Lys-Cys-Arg-Arg-Asp-Ser-Asp-Cys-Pro-Gly-Ala-Cys-Ile-Cys-Arg-Gly-Asn-Gly-Tyr-Cys-Gly-Ser-Gly-Ser-Asn(OH)-Ile-Val-NH2?
- ring closure, conversion [4, 5]: 95%

Compound: H-Gly-Gly-Val-Cys-Pro-Lys-Ile-Leu-Lys-Lys-Cys-Arg-Arg-Asp-Ser-Asp-Cys-Pro-Gly-Ala-Cys-Ile-Cys-Arg-Gly-Asn-Gly-Tyr-Cys-Gly-Ser-Gly-Ser-Asp-Ile-Val-NH2?
- ring closure, conversion [4, 5]: 0%

Compound: H-Gly-Leu-Pro-Val-Cys-Gly-Glu-Thr-Cys-Phe-Gly-Gly-Thr-Cys-Asn-Thr-Pro-Gly-Cys-Ser-Cys-Thr-Trp-Pro-Ile-Cys-Thr-Arg-Asp-Ile-Val-NH2?
- ring closure, conversion ([4]; the molecule shown is the open-chain precursor, 87-membered ring, butelase-1 (0.01 eq), 20 mM PBS pH 6.5, 0.4 mM): 0%

Compound: ISYGNDALMP-NH2 [Peptide 8, reference compound]
- metabolised at 32 min, 100 μM ([1]; in 32 min, read-out: degradation in human serum): > 50%
- Ki (MMP2): 60 nM

Compound: c[FLaRGN(OH)FLaRGN(OH)]
- ring closure, conversion ([4]; 36-membered ring, butelase-1 (0.01 eq), 20 mM PBS pH 6.5, 0.4 mM): 90%

Compound: cyclo[SYCN(OH)CLCRRGVCRCICTI]
- ring closure, conversion ([4]; 54-membered ring, butelase-1 (0.04 eq), PBS pH 6.5, 0.1 mM): 60%
